Values of other authors, collected in patent US8486621B2, “Nucleic acid-based matrixes” (Cornell Research Foundation, Inc., priority 2005, dated 2013).

Key:
[1] = test system: major and minor grooves of the DNA molecules
[2] = test system: plasma glucose, insulin, and triglyceride levels; conditions: in vivo
[3] = target: T1, PPAR-gamma (Homo sapiens, UniProt P37231); conditions: context-specific, some cell types
T1 sequence (P37231 1-505): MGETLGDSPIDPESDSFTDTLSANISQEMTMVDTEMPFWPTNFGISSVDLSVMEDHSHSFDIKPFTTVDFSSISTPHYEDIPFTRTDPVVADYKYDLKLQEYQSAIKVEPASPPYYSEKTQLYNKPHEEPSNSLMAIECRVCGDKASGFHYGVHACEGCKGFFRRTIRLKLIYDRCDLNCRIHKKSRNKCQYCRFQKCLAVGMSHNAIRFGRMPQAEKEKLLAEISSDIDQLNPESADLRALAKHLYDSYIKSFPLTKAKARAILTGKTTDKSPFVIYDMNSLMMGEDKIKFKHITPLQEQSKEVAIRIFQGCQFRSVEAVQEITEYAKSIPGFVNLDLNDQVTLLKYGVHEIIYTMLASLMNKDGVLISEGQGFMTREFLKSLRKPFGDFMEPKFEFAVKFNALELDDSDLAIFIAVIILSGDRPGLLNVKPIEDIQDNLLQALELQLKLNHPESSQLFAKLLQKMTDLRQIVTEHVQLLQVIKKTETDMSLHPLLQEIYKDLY

Structure (SMILES): CC[C@@]1(O)C(=O)OCc2c1cc1n(c2=O)Cc2cc3ccccc3nc2-1 [CPT, (S)-(+)-camptothecin]
- affinity to DNA [1]: high affinity

Structure (SMILES): O=C1NC(=O)C(Cc2ccc3cc(OCc4ccccc4F)ccc3c2)S1 (stereo not shown) [netoglitazone, 5-[{6-(2-fluorobenzyl)oxy-2-naphthyl}methyl]-2,4-thiazolidinedione]
- efficacy in lowering plasma glucose, insulin, and triglyceride levels [2]: more efficacious than pioglitazone and troglitazone
- potency relative to rosiglitazone [2]: about three-fold more potent than rosiglitazone
- mode of action at PPAR-gamma [3]: full agonist of PPAR-gamma and as a partial agonist or antagonist in others
